Where a SMILES comes first, the peptide text is derived from it. [ ]: non-standard residue; d: D form. The star is where a group is joined. NHCH2CH2OH = OCCN*; For = O=C*
How the values were obtained:
[1] = system: P388 mouse leukemia cells; conditions: 92 h
Excerpt: Each type of assay must be simplified and miniaturized to assess the activities of the library peptides in a 96-well format for the high-throughput screening. […]
Mammalian cytotoxicity assay of bead-derived peptides . P388 cells were obtained from Institute of
Development Aging and Cancer (Tohoku University). The cells were maintained with growth medium
[RPMI1640 with phenol red ( Fujifilm Wako Pure Chemical) supplemented with 10% heat -inactivated fetal
bovine serum, pe nicillin G (100 units/mL), and streptomycin (100 µg/mL)] under atmosphere of 5% CO 2 at
The collected cells were resuspended into
the growth medium at 2 × 10^4 cells/mL. The stock solutions of the peptide library were 250-fold diluted
with the growth medium. Aliquots of the medium (100 µL) containing peptides and the latter medium
containing P388 cells (100 µL) were mixed in a 96-well cell culture plate (TR5003, TrueLine). The final
concentration of P388 cells was 1 × 10^4 cells/mL. After incubation under atmosphere of 5% CO2 at 37 °C
for 92 h, the numbers of viable cells were determined by
2-(4-iodophenyl)-3-(4-nitrophenyl)-5-(2,4-disulfophenyl)-2H-tetrazolium, monosodium salt (WST-1) assay.
A solution of 1-methoxy-5-methylphenazinium methyl sulfate (1-methoxy PMS) and WST-1 in the growth
medium (1-methoxy PMS 0.70 mg/mL in Milli-Q/WST-1 3.6 mg/mL in pH 7.4 HEPES buffer = 1/9) was
added to each well of the plate (10.0 µL/well). The plate was incubated for 4 h under atmosphere of 5% CO2
at 37 °C. The absorbance of each well at 415 nm was measured using a Benchmark microplate reader
(Bio-Rad). The cytotoxicities were evaluated as cell viability (%). […]

[2] = system: Streptococcus pyogenes SSI-9; assay: Antibacterial activity assay of bead-derived peptides (three concentrations); format: cell-based; design: key: +++: inhibition by the 640-fold diluted peptide solution; ++: inhibition by the 160-fold diluted solution; +: inhibition by the 40-fold diluted solution; -: no inhibition; conditions: S. pyogenes, bead-derived peptide solution, three concentrations
Procedure: (§1) Each type of assay must be simplified and miniaturized to assess the activities of the library peptides in a 96-well format for the high-throughput screening.
Next, the peptides in groups A and B were subjected to the antibacterial assay and structural determination. Three peptide concentrations were applied to evaluate the growth inhibition of S. pyogenes and determine the antibacterial activity. […] Finally, the structures of the peptides were determined. […]
Antibacterial activity assay of bead-derived peptides. The stock solution of the peptide library was 4- and […]
16-fold diluted with DMSO. The non-diluted stock solution, 4-fold diluted solution, and 16-fold diluted […]
solution were transferred to the 96-well round-bottom plate (3367, Corning, 1.0 µL/well). To the solution of […]
peptide in each well was added a suspension of Streptococcus pyogenes SSI-9 strain in cation adjusted […]
Mueller Hinton Broth [40.0 µL, 2 × 10^5 colony forming units (CFU), 21 g/L Mueller Hinton Broth (Difco), 50 […]
mg/L Ca2+ (adjusted with CaCl2•2H2O), and 25 mg/L Mg2+ (adjusted with MgCl2•6H2O)] supplemented with […]
5% laked horse blood (Nippon Biotest Laboratories). The plate was incubated at 37 °C for 18 h, and the precipitation of the grown cells was examined. […]

[3] = H+/Na+ transport assay of bead-derived peptides (one-point); format: biochemical; design: key: relative activity; mean of two control wells = 1.00; conditions: bead-derived peptide solution, EYPC/EYPG LUVs;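 further: relative to parent gramicidin A activity set to 1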
Procedure: as §1
H+/Na+ transport assay of bead-derived peptides.1,2,3 Trisodium 8-hydroxypyrene-1,3,6-trisulfonate
mini-extruder apparatus (Avanti Polar Lipids).
28.9 µmol) in CHCl3 (225 µL) and egg yolk phosphatidylglycerol (1.20 mg, 1.56 µmol) in CHCl3 (60.0 µL)
The thin film was hydrated and
1.0 mM pyranine) by sonication.
A suspension of the LUVs was immediately
used for the H+/Na+ transport assay.
The diluted solution of peptide
flat-bottom 96-well plate (655086, Greiner bio-one).
was vortexed at room temperature for 30 min.
(5/95, 3.0 µL) and the LUV suspension were mixed in each plate to determine 100% lysis. The untreated
LUV suspension was used to determine 0% lysis.
normalized against 100% lysis by Triton X-100 (Imax) and 0% lysis (I0) as following, where Ix is the
fluorescence intensity (Supplementary Equation 2).
I = 100 × (Ix – I0) / (Imax – I0) (2)
The mean value of the two control wells was set to 1.00. […]

Compound	cell viability/% [1]	antibacterial activity [2]	H+/Na+ transport activity normalized against the value of 1 (1.00) [3]
CC(C)C[C@@H](NC(=O)[C@H](C)NC(=O)CNC(=O)[C@@H](NC=O)C(C)C)C(=O)N[C@@H](C)C(=O)N[C@H](CC(C)C)C(=O)N[C@H](C(=O)N[C@H](CC(C)C)C(=O)N[C@@H](Cc1c[nH]c2ccccc12)C(=O)N[C@@H](C(=O)N[C@@H](Cc1c[nH]c2ccccc12)C(=O)N[C@H](CC(C)C)C(=O)N[C@@H](Cc1c[nH]c2ccccc12)C(=O)N[C@H](CC(C)C)C(=O)N[C@@H](Cc1c[nH]c2ccccc12)C(=O)NCCO)C(C)C)C(C)C [compound 11198] (For-VGA[dL]A[dL]V[dL]W[dV]W[dL]W[dL]W-NHCH2CH2OH)	3.2%	-	1.08
CC(C)C[C@@H](NC(=O)[C@H](C)NC(=O)CNC(=O)[C@@H](NC=O)C(C)C)C(=O)N[C@@H](C)C(=O)N[C@@H](C(=O)N[C@H](C(=O)N[C@@H](C(=O)N[C@@H](Cc1c[nH]c2ccccc12)C(=O)N[C@@H](C(=O)N[C@@H](Cc1c[nH]c2ccccc12)C(=O)N[C@H](CC(C)C)C(=O)N[C@@H](Cc1c[nH]c2ccccc12)C(=O)N[C@H](CC(C)C)C(=O)N[C@@H](Cc1c[nH]c2ccccc12)C(=O)NCCO)C(C)C)[C@H](C)O)C(C)C)C(C)C [compound 6225] (For-VGA[dL]A[dV]V[dT]W[dV]W[dL]W[dL]W-NHCH2CH2OH)	80.8%	-	1.10
CC(C)C[C@@H](NC(=O)[C@H](Cc1c[nH]c2ccccc12)NC(=O)[C@H](NC(=O)[C@H](Cc1c[nH]c2ccccc12)NC(=O)[C@@H](CC(C)C)NC(=O)[C@H](Cc1c[nH]c2ccccc12)NC(=O)[C@H](NC(=O)[C@@H](NC(=O)[C@H](NC(=O)[C@H](C)NC(=O)[C@H](NC(=O)[C@H](C)NC(=O)CNC(=O)[C@@H](NC=O)C(C)C)C(C)C)C(C)C)C(C)C)C(C)C)C(C)C)C(=O)N[C@@H](Cc1c[nH]c2ccccc12)C(=O)NCCO [compound 1844] (For-VGA[dV]A[dV]V[dV]W[dL]W[dV]W[dL]W-NHCH2CH2OH)	47.9%	++	1.18
CC(C)C[C@@H](NC(=O)[C@H](C)NC(=O)[C@H](NC(=O)[C@H](C)NC(=O)CNC(=O)[C@@H](NC=O)C(C)C)[C@H](C)O)C(=O)N[C@H](C(=O)N[C@H](CC(C)C)C(=O)N[C@@H](Cc1c[nH]c2ccccc12)C(=O)N[C@@H](C(=O)N[C@@H](Cc1c[nH]c2ccccc12)C(=O)N[C@H](CC(C)C)C(=O)N[C@@H](Cc1c[nH]c2ccccc12)C(=O)N[C@@H](C(=O)N[C@@H](Cc1c[nH]c2ccccc12)C(=O)NCCO)C(C)C)[C@H](C)O)C(C)C [compound 6248] (For-VGA[dT]A[dL]V[dL]W[dT]W[dL]W[dV]W-NHCH2CH2OH)	87.7%	-	1.10
CC(C)C[C@@H](NC(=O)[C@H](Cc1c[nH]c2ccccc12)NC(=O)[C@H](NC(=O)[C@H](Cc1c[nH]c2ccccc12)NC(=O)[C@H](NC(=O)[C@H](Cc1c[nH]c2ccccc12)NC(=O)[C@@H](CC(C)C)NC(=O)[C@@H](NC(=O)[C@H](NC(=O)[C@H](C)NC(=O)[C@H](NC(=O)[C@H](C)NC(=O)CNC(=O)[C@@H](NC=O)C(C)C)C(C)C)C(C)C)C(C)C)C(C)C)C(C)C)C(=O)N[C@@H](Cc1c[nH]c2ccccc12)C(=O)NCCO [compound 3111] (For-VGA[dV]A[dV]V[dL]W[dV]W[dV]W[dL]W-NHCH2CH2OH)	8.2%	-	1.12
CC(C)C[C@@H](NC(=O)[C@H](Cc1c[nH]c2ccccc12)NC(=O)[C@H](NC(=O)[C@H](Cc1c[nH]c2ccccc12)NC(=O)[C@H](NC(=O)[C@@H](NC(=O)[C@H](NC(=O)[C@H](C)NC(=O)[C@H](NC(=O)[C@H](C)NC(=O)CNC(=O)[C@@H](NC=O)C(C)C)C(C)C)C(C)C)C(C)C)C(C)C)C(C)C)C(=O)N[C@@H](Cc1c[nH]c2ccccc12)C(=O)N[C@@H](C(=O)N[C@@H](Cc1c[nH]c2ccccc12)C(=O)NCCO)C(C)C [compound 5678] (For-VGA[dV]A[dV]V[dV]W[dV]W[dL]W[dV]W-NHCH2CH2OH)	93.2%	++	1.11
CC(C)C[C@@H](NC(=O)[C@H](C)NC(=O)CNC(=O)[C@@H](NC=O)C(C)C)C(=O)N[C@@H](C)C(=O)N[C@H](CC(C)C)C(=O)N[C@H](C(=O)N[C@@H](C(=O)N[C@@H](Cc1c[nH]c2ccccc12)C(=O)N[C@@H](C(=O)N[C@@H](Cc1c[nH]c2ccccc12)C(=O)N[C@@H](C(=O)N[C@@H](Cc1c[nH]c2ccccc12)C(=O)N[C@H](CC(C)C)C(=O)N[C@@H](Cc1c[nH]c2ccccc12)C(=O)NCCO)[C@H](C)O)C(C)C)C(C)C)C(C)C [compound 8498] (For-VGA[dL]A[dL]V[dV]W[dV]W[dT]W[dL]W-NHCH2CH2OH)	52.6%	-	1.01
CC(C)C[C@@H](NC(=O)[C@H](C)NC(=O)[C@H](NC(=O)[C@H](C)NC(=O)CNC(=O)[C@@H](NC=O)C(C)C)C(C)C)C(=O)N[C@H](C(=O)N[C@@H](C(=O)N[C@@H](Cc1c[nH]c2ccccc12)C(=O)N[C@@H](C(=O)N[C@@H](Cc1c[nH]c2ccccc12)C(=O)N[C@H](CC(C)C)C(=O)N[C@@H](Cc1c[nH]c2ccccc12)C(=O)N[C@@H](C(=O)N[C@@H](Cc1c[nH]c2ccccc12)C(=O)NCCO)C(C)C)C(C)C)[C@H](C)O)C(C)C [compound 13174] (For-VGA[dV]A[dL]V[dT]W[dV]W[dL]W[dV]W-NHCH2CH2OH)	100.0%	-	1.18
CC(C)C[C@@H](NC(=O)[C@H](C)NC(=O)CNC(=O)[C@@H](NC=O)C(C)C)C(=O)N[C@@H](C)C(=O)N[C@@H](C(=O)N[C@H](C(=O)N[C@@H](C(=O)N[C@@H](Cc1c[nH]c2ccccc12)C(=O)N[C@@H](C(=O)N[C@@H](Cc1c[nH]c2ccccc12)C(=O)N[C@@H](C(=O)N[C@@H](Cc1c[nH]c2ccccc12)C(=O)N[C@H](CC(C)C)C(=O)N[C@@H](Cc1c[nH]c2ccccc12)C(=O)NCCO)C(C)C)C(C)C)C(C)C)C(C)C)C(C)C [compound 9223] (For-VGA[dL]A[dV]V[dV]W[dV]W[dV]W[dL]W-NHCH2CH2OH)	100.0%	+	1.03
CNC(=O)C[C@@H](NC(=O)[C@H](C)NC(=O)[C@@H](CC(C)C)NC(=O)[C@H](C)NC(=O)CNC(=O)[C@@H](NC=O)C(C)C)C(=O)N[C@H](C(=O)N[C@@H](C(=O)N[C@@H](Cc1c[nH]c2ccccc12)C(=O)N[C@H](CC(C)C)C(=O)N[C@@H](Cc1c[nH]c2ccccc12)C(=O)N[C@@H](C(=O)N[C@@H](Cc1c[nH]c2ccccc12)C(=O)N[C@H](CC(C)C)C(=O)N[C@@H](Cc1c[nH]c2ccccc12)C(=O)NCCO)C(C)C)C(C)C)C(C)C [compound 9352] (For-VGA[dL]A[dD](NHMe)V[dV]W[dL]W[dV]W[dL]W-NHCH2CH2OH)	100.0%	-	1.18

Source: PMC7531004, “Discovery of gramicidin A analogues with altered activities by multidimensional screening of a one-bead-one-compound library” (Nature Communications, 2020)
